Where two headings read alike, the source gives them in different places.

What all share (assay type): cell-based
For series [1], the system named is Trypanosoma cruzi (Tulahuen C2C4 strain). Put plainly: American trypanosome protozoa growth inhibition screening test (CPRG/Nonidet, 96 hours). Particulars: for IC50: Trypanosoma cruzi, Tulahuen C2C4 strain in rat L6 cells, 96 hours culture, read-out: 50% growth inhibiting concentration Trypanosoma cruzi; for Selective toxicity: chemotherapy index, rat L6 cells versus American trypanosome protozoa. On the procedure:
In the present example, amastigote and trypomastigote infected with rat L6 cells of protozoa of Trypanosoma cruzi (Tulahuen C2C4 strain) were used. As medium used in the test, RPMI 1640 medium containing L6 cells was supplemented so that L-glutamine (200 mM) becomes 1%, fetal bovine serum becomes 10%, which was cultured under CO2 concentration 5%, at 37° C.
The compounds of the present invention to be used in the test and the positive target agent (benznidazole) were dissolved in DMSO to make a test solution of a predetermined concentration. A medium containing 5×10^3 protozoa was added to wells of a 96-well culture plate, and pre-cultured for 48 hours. After replacing the medium, test solution containing drug of a predetermined concentration or a drug-free DMSO was added. Test solutions were taken by duplicates. After culturing the culture plate in an incubator for 96 hours, growth inhibition activity was tested. Test was conducted as follows.
50 μL of CPRG/Nonidet was added to each well, and allowed to rest for 2 to 6 hours. Next, the culture plate was placed on a fluorescent micro-plate reader, and the absorbance was measured at 540 nm. Growth inhibition rate was calculated with the following formula based on the protozoan infection rate which was obtained by calculating trypanosome infection rate of test solution added group and control group, to obtain a 50% growth inhibition concentration (IC50). Growth inhibition rate (%)={1−(b−a)/(c−a)}×100 a: early infection rate b: infection rate when test solution was added c: infection rate of the control
Chemotherapy index used as an index of selective toxicity against American trypanosome protozoa was calculated with the following formula, to determine drug efficacy.

Series [2] can be described thus: Growth inhibition test of rat L6 cells (Alamar Blue, 72 hours). Particulars: 72 hours culture, Table 1, read-out: 50% growth inhibiting concentration Cytotoxicity L6. The procedure:
(§1) Rat derived-L6 cells (rat skeletal myoblast cell) were used. As medium, RPMI1640 medium was supplemented so that L-glutamin (200 mM) is 1%, and fetal bovine serum 10%, and the medium was cultured under CO2 concentration 5%, at 37° C. The compounds of the present invention and the target drugs to be used in the test were dissolved in DMSO, to make a test solution of a predetermined concentration. Pre-culture was conducted and medium containing cells which have entered the logarithmic growth phase was taken to wells of a 96-well culture plate. Then, a test solution containing drug of a predetermined concentration or a drug-free DMSO was added. Test solutions were taken by duplicates. Culture plate was cultured for 72 hours in an incubator, to test the growth inhibition activity. Test was conducted as follows.
(§2) 10 μL of Alamar Blue aqueous solution was added to each well, and the resultant was further cultured for 2 hours. Next, the culture plate was placed on a fluorescent micro-plate reader (Spectramax Gemeni XS; US Molecular Device), radiated at an excited wavelength of 536 nm. Fluorescent intensity was measured at 588 nm, and residual rate of L6 cells of the test solution added group, and that of the control was calculated. From the cell residual rate obtained in the above, growth inhibition rate to L6 cells was calculated, to obtain a 50% growth inhibition concentration (IC50). Growth inhibition rate (%)={(C−A)/(B−A)}×100 A: primary cell count B: cell count of control 3 days after C: cell count of wells added with a sample, 3 days after […]

Series [3] deals with Rat derived-L6 cells (rat skeletal myoblast cell). The description is as above. The conditions noted are these: 72 hours culture, Table 2, read-out: 50% growth inhibiting concentration Cytotoxicity L6. On the procedure:
as §1, §2

Series [4] concerns Trypanosoma brucei rhodensiense (STIB 900 strain). Put plainly: African trypanosome protozoa growth inhibition screening test (Alamar Blue, 72 hours). The conditions noted are these: for IC50: Trypanosoma brucei, read-out: 50% growth inhibiting concentration Trypanosoma brucei rhod.; for Selective toxicity: chemotherapy index, rat L6 cells versus African trypanosome protozoa. On the procedure:
In the present example, protozoa of Trypanosoma brucei rhodensiense (STIB 900 strain), a trypamastigote living in blood stream, was used. The medium used in the experiment was a MEM medium which was sterilized with a filter and supplemented with 25 mM N-2-hydroxyethylpiperazine-2-ethansulfonic acid (HEPES), 1 g/L glucose, 1% MEM non-essential amino acid, 0.2 mM 2-mercaptoethanol, 2 mM sodium pyruvate, 0.1 mM hypoxanthine, and 15% heat-treated horse serum. The protozoa was cultured in an atmosphere of CO2 concentration 5%, at a temperature of 37° C.
The compounds of the present invention to be used in the present test and the positive target drug (melarsoprol) were dissolved in DMSO to make a test solution of a predetermined concentration. A medium containing 8×10^3 protozoa, and a test solution containing a drug of a predetermined concentration or a drug-free DMSO were added to wells of a 96-well culture plate, and subsequently, medium was added so that the amount in each well becomes 100 μL. Test solutions were taken by duplicates. After culturing the culture plate for 72 hours in an incubator, growth inhibition activity was tested. Test was conducted as follows.
10 μL of Alamar Blue aqueous solution was added to each well, and the resultant was further cultured for 2 hours. Next, the culture plate was placed on a fluorescent micro-plate reader (Spectramax Gemeni XS; US Molecular Device), radiated at an excited wavelength of 536 nm. Fluorescent intensity was measured at 588 nm, to calculate the trypanosome protozoa infected rate of the test solution added-group, and of the control group. From the protozoan infection rate obtained in the above, growth inhibition rate was calculated with the following formula, to obtain a 50% growth inhibition concentration (IC50). Growth inhibition rate (%)={1−(b−a)/(c−a)}×100 a: early infection rate b: infection rate when test solution was added c: infection rate of the control
Chemotherapy index used as an index of selective toxicity against African trypanosome protozoa was calculated with the following formula, to determine drug efficacy.

[5] abbreviates: L6 cells (rat skeletal myoblasts).
Setting [6] is: STIB900, STIB 900 strain, bloodstream form, 72 hours culture.

Take `CCn1c(=O)/c(=c2\s/c(=C3/Sc4ccccc4N3C)c(=O)n2CC)s/c1=C\c1sc2ccccc2[n+]1C` [C-1]: the IC50 in series [1] is 14 µM; in series [3] it was more than 140 µM; in series [4] (setting [6]) it was 0.009 µM. Moreover, the values for the Selective toxicity in series [1] and in series [4] were more than 10 and more than 15600, respectively. Also, the IC50 at 72 h in series [2] (setting [5]) was more than 140 µM.
With `CCn1c(=O)/c(=C2\Sc3ccccc3N2C)s/c1=C\c1cccc[n+]1CCOCCOCCOC` [B-5], the IC50 in series [1] is 29 µM; in series [4] (setting [6]), 0.37 µM. Moreover, the Selective toxicity in series [1] came out at 4.3; in series [4], 338. Moreover, the IC50 at 72 h in series [2] (setting [5]) was determined as 125 µM.
As to `CCn1c(=O)/c(=C2\SCCN2C)s/c1=C\c1sc2ccc3ccccc3c2[n+]1CC` [B-1], the IC50 stood at 40 µM in series [1] and 0.095 µM in series [4] (setting [6]). Besides, the figures for the Selective toxicity in series [1] and in series [4] were 4.8 and 2030, respectively. For the same molecule, the IC50 at 72 h in series [2] (setting [5]) turned out to be 193 µM.
On the same counts, the results for `CCn1c(=O)c(=C2C=CN(C)C=C2)s/c1=C\c1sc2c3ccccc3ccc2[n+]1CC` [A-1] are 48 µM, 0.76 µM, 2.8, 176 and 134 µM.
In the case of `CCn1c(=O)/c(=C2\Sc3ccccc3N2C)s/c1=C\c1cccc[n+]1CCOCCOCCO` [B-6], the IC50 at 72 h in series [2] (setting [5]) worked out at 61.9 µM. Moreover, the IC50 in series [4] (setting [6]) was found to be 0.94 µM. Further, the Selective toxicity in series [4] is listed as 66.
As to `CCn1c(=O)/c(=C2\Oc3c(ccc4ccccc34)N2C)s/c1=C\C1=[N+](CC)CCS1` [B-10], the IC50 in series [1] is 0.35 µM; in series [4] (setting [6]), 0.035 µM. The Selective toxicity in series [1] is reported as 53; in series [4] it was 529. Also, in series [2] (setting [5]), the IC50 at 72 h is 18.5 µM.
As to `CCn1c(=O)/c(=C2\Oc3ccc4ccccc4c3N2C)s/c1=C\c1scc(C)[n+]1C` [B-9], the IC50 worked out at 0.22 µM in series [1] and 0.024 µM in series [4] (setting [6]). Besides, the Selective toxicity is given as 65 in series [1] and 592 in series [4]. Besides, in series [2] (setting [5]), the IC50 at 72 h was determined as 14.2 µM.
On to `CCn1c(=O)/c(=C2\C=CN(C)c3ccccc32)s/c1=C\c1oc2ccccc2[n+]1CC` [A-2], for which the IC50 in series [1] amounted to 0.53 µM; in series [4] (setting [6]) it was 0.012 µM. Also, the values for the Selective toxicity in series [1] and in series [4] were 10 and 533, respectively. Moreover, the IC50 at 72 h in series [2] (setting [5]) was 6.4 µM.
With `O=C(Cn1ccnc1[N+](=O)[O-])NCc1ccccc1` [benznidazole, reference compound], the IC50 in series [1] was 0.87 µM.
With `Nc1nc(N)nc(Nc2ccc([As]3SCC(CO)S3)cc2)n1` (stereo not shown) [melarsoprol, reference compound], the IC50 at 72 h in series [2] worked out at 7.8 µM. For the same molecule, in series [4] (STIB900, 72 h), the IC50 turned out to be 0.006 µM. In series [4], this molecule gave a Selective toxicity of 1300.

For the origin of these results see patent US7795285B2, “Anti-trypanosomiasis agent” (Fujifilm Corporation, priority 2004, dated 2010).
